Consider 20 molecules from patent US7402606B2, “Derivatives of 1-(oxoaminoacetyl) pentylcarbamate as cathepsin K inhibitors for the treatment of bone loss” (SmithKline Beecham Corporation, priority 2002, dated 2008).

The target in the assay is T1, human cathepsin K (Homo sapiens, UniProt P43235).
T1 construct: The proform of cathepsin K was converted to mature cathepsin K by brief exposure to pH 4; made in house; host or cells: baculovirus; Trichoplusia ni High Five cells (virus raised in Sf-9)
T1 sequence (P43235 115-329): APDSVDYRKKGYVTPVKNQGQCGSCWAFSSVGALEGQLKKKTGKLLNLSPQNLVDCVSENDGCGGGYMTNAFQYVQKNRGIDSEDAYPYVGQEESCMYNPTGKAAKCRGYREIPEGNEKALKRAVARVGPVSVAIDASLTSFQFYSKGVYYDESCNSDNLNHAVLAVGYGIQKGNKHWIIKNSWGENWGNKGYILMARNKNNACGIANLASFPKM
The experiment in a line: Cathepsin K inhibition assay, human recombinant enzyme, fluorogenic substrate Cbz-Phe-Arg-AMC. The note with it: Table 1, human cathepsin K; read-out: h Cat K IC50. The format is biochemical. The procedure: All assays for cathepsin K were carried out with human and rat recombinant enzyme. Assays for cathepsins S ? V were also carried out with human recombinant enzyme. Assays for human cathepsins B, H, and L were carried out with enzyme, purchased from Athens Research and Technology, Inc., prepared from human liver tissue. […] A stock substrate solution of Cbz-Phe-Arg-AMC was prepared at a concentration of 50 mM in dimethyl sulfoxide. This substrate was diluted into the assay for a final substrate concentration of 10 μM in the rat cathepsin K, human cathepsin K, and human cathepsin B assays; a final substrate concentration of 5 μM in the human cathepsin L assay; and a final substrate concentration of 2 μM in the human cathepsin V assay.
All assays contained 10% dimethyl sulfoxide. […] All assays were conducted at 30° C. Product fluorescence (excitation at 360 nm; emission at 440 nm, (except cathepsin H which used excitation at 340 nm; emission at 420 nm)) was monitored with a PerSeptive Biosystems Cytofluor II fluorescence plate reader. Product progress curves were generated over 2.3 h monitoring the formation of 7-amino-4-methylcoumarin product (or β-naphthalamide for cathepsin H).
Human and rat Cathepsin K:
Two liters of Spodoptera frugiperda (Sf-9) cells (ATCC) were grown in Grace's Supplemented medium (Life Technologies) supplemented with 2 g/L glucose, 10% fetal bovine serum (HyClone) and 0.1% pluronic F-68 (Life Technologies). […] The cells continued to grow for 72 h post-infection, before the virus was harvested by centrifugation at 1400×g for 30 min.
One and one-half liters of Trichoplusia ni (T. ni) High Five (™) cells [JRH Biosciences, Woodland, Calif. […] The cells were grown for 24 h at 28° C., 50 RPM, and 50% dissolved oxygen. […] Media were separated from cells at a rate of 1 L/min using the Centritech 100 ™ continuous-flow centrifuge (DuPont) operating at 200×g.
Protein Purification: Media (human and rat) were filtered through a Whatman 3 filter, and then loaded onto a 25 mL. Poros HS II (26 mm×47 mm) cation exchange column equilibrated in 25 mM sodium acetate at pH 5.5 (equilibration buffer). The column was washed until the absorbance reached the baseline value, and then the protein was eluted with a linear gradient from 0-2 M sodium chloride in the equilibration buffer. Column fractions were analyzed by SDS-PAGE, N-terminal sequencing, and mass spectrometry. Fractions containing the proform of cathepsin K were pooled and frozen at −80° C. The proform was concentrated in an Amicon Centriprep 10 and fractionated with a Superdex 75 column (26 mm×600 mm, Pharmacia) equilibrated in 400 mM sodium chloride, 25 mM sodium acetate at pH 5.5.
Cathepsin K Activation: The proform of cathepsin K was converted to mature cathepsin K by brief exposure to pH 4 in the presence of 5 mM L-cysteine. Typically, 5 mM L-cysteine was added to 10 mL of approximately 1 mg/mL procathepsin K. One mL of this solution was diluted ten-fold into 450 mM sodium acetate at pH 4.0 containing 5 mM L-cysteine. This solution was reacted at 23° C. for 2 min before neutralization with 2 mL, 1.8 M sodium acetate at pH 6.0. The neutralized sample was added to the remaining 9 mL of procathepsin K. The mixture was incubated at 4° C. for 2-3 days. The activated cathepsin K was chromatographed on a Poros HS II column as described above.
Potential inhibitors were evaluated using the progress curve method. Assays were carried out in the presence of variable concentrations of test compound. Reactions were initiated by addition of buffered solutions of inhibitor and substrate to enzyme. Data analysis was conducted according to one of two procedures depending on the appearance of the progress curves in the presence of inhibitors. […] Ki values were calculated from IC50 values using equation 2 assuming a competitive model.
As usually defined, the IC50 is the point on the concentration scale where inhibition reaches its midpoint. Turning to `CCCC[C@H](NC(=O)O[C@@H]1CN(C(=O)c2cnc3ccccc3c2)CC1(C)C)C(=O)C(=O)N[C@H](C)c1ccccc1` [Example 29, (3S)-4,4-Dimethyl-(3-quinolinylcarbonyl)pyrrolidinyl 1-(oxo{[(1R)-1-phenylethyl]amino}acetyl)pentylcarbamate], the IC50 was in the range of 10 to 100 nM.

On to `CCCC[C@H](NC(=O)OC1C(=O)N(C(=O)OCc2ccccc2)CC1(C)C)C(=O)C(=O)N[C@H](C)c1ccccc1` (stereo partly drawn) [Example 5, Benzyl 4,4-dimethyl-2-oxo-3-[({[(1S)-1-(oxo{[(1R)-1-phenylethyl]amino}acetyl)pentyl]amino}carbonyl)oxy]-1-pyrrolidinecarboxylate], for which the IC50 is 10 to 100 nM. The result for `CCCC[C@H](NC(=O)O[C@@H]1CN(C(=O)OCC2CCOC2)CC1(C)C)C(=O)C(=O)N[C@H](C)c1ccccc1` (stereo partly drawn) [Example 49, Tetrahydro-3-furanylmethyl (4S)-3,3-dimethyl-4-[({[(1S)-1-(oxo {[(1R)-1-phenylethyl]amino}acetyl)pentyl]amino}carbonyl)oxy]-1-pyrrolidinecarboxylate] reads 10 to 100 nM; that for `CCCC[C@H](NC(=O)O[C@@H]1CN(C(=O)OCc2noc(-c3cccs3)n2)CC1(C)C)C(=O)C(=O)N[C@H](C)c1ccccc1` [Example 55, [5-(2-Thienyl)-1,2,4-oxadiazol-3-yl]methyl (4S)-3,3-dimethyl-4-[({[(1S)-1-(oxo{[(1R)-1-phenylethyl]amino}acetyl)pentyl]amino}carbonyl)oxy]-1-pyrrolidinecarboxylate], 10 to 100 nM; that for `CCCC[C@H](NC(=O)O[C@@H]1CN(C(=O)NCCc2ccccc2)CC1(C)C)C(=O)C(=O)N[C@H](C)c1ccccc1` [Example 65, (3S)-4,4-Dimethyl-1-{[(2-phenylethyl)amino]carbonyl}pyrrolidinyl (1S)-1-(oxo{[(1R)-1-phenylethyl]amino}acetyl)pentylcarbamate], 1 to 10 nM. For `CCCC[C@H](NC(=O)O[C@@H]1CN(C(=O)NCc2ccccc2)CC1(C)C)C(=O)C(=O)N[C@H](C)c1ccccc1` [Example 64], the IC50 was 1 to 10 nM. `CCCC[C@H](NC(=O)O[C@@H]1CN(C(=O)Nc2c(C)noc2C)CC1(C)C)C(=O)C(=O)N[C@H](C)c1ccccc1` [Example 67, (3S)-1-{[(3,5-Dimethyl-4-isoxazolyl)amino]carbonyl}-4,4-dimethylpyrrolidinyl (1S)-1-(oxo{[(1R)-1-phenylethyl]amino}acetyl)pentylcarbamate]: the 50% inhibitory concentration (IC50) is 10 to 100 nM.

Consider `CCCC[C@H](NC(=O)O[C@@H]1CN(C(=O)OCCN2CCCC2=O)CC1(C)C)C(=O)C(=O)N[C@H](C)c1ccccc1` [Example 47, 2-(2-Oxo-1-pyrrolidinyl)ethyl (4S)-3,3-dimethyl-4-[({[(1S)-1-(oxo{[(1R)-1-phenylethyl]amino}acetyl)pentyl]amino}carbonyl)oxy]-1-pyrrolidinecarboxylate], for which the IC50 fell in the range of 10 to 100 nM. Turning to `CCCC[C@H](NC(=O)O[C@@H]1C(=O)OCC1(C)C)C(=O)C(=O)N[C@H](C)c1ccccc1` [Example 1, (3S)-4,4-dimethyl-2-oxotetrahydro-3-furanyl (1S)-1-(oxo([(1R)-1-phenylethyl]amino}acetyl)pentylcarbamate], the IC50 lay in the range of 1 to 10 nM. In the case of `CCCC[C@H](NC(=O)O[C@@H]1CN(C(=O)Cc2cccc(Oc3ccccc3)c2)CC1(C)C)C(=O)C(=O)N[C@H](C)c1ccccc1` [Example 23, (3S)-4,4-Dimethyl-1-[(3-phenoxyphenyl)acetyl]pyrrolidinyl (1S)-1-(oxo{[(1R)-1-phenylethyl]amino}acetyl)pentylcarbamate], the IC50 lay in the range of 10 to 100 nM.

Take `CCCC[C@H](NC(=O)O[C@@H]1CN(C(=O)NC(=O)c2ccccc2)CC1(C)C)C(=O)C(=O)N[C@H](C)c1ccccc1` [Example 75, (3S)-1-[(Benzoylamino)carbonyl]-4,4-dimethylpyrrolidinyl (1S)-1-(oxo{[(1R)-1-phenylethyl]amino}acetyl)pentylcarbamate]: the 50% inhibitory concentration (IC50) lay within 10 to 100 nM. The result for `CCCC[C@H](NC(=O)O[C@@H]1CN(C(=O)c2cc(C(C)(C)C)nn2C)CC1(C)C)C(=O)C(=O)N[C@H](C)c1ccccc1` [Example 14, (3S)-1-[(3-tert-Butyl-1-methyl-1H-pyrazol-5-yl)carbonyl]-4,4-dimethylpyrrolidinyl (1S)-1-(oxo{[(1R)-1-phenylethyl]amino}acetyl)pentylcarbamate] reads 1 to 10 nM. The result for `CCCC[C@H](NC(=O)O[C@@H]1CN(C(=O)c2cccnc2)CC1(C)C)C(=O)C(=O)N[C@H](C)c1ccccc1` [Example 66, (3S)-4,4-Dimethyl-1-(3-pyridinylcarbonyl)pyrrolidinyl (1S)-1-(oxo{[(1R)-1-phenylethyl]amino}acetyl)pentylcarbamate] reads 10 to 100 nM; that for `CCCC[C@H](NC(=O)O[C@@H]1CN(C(=O)OCC2CCCCO2)CC1(C)C)C(=O)C(=O)N[C@H](C)c1ccccc1` (stereo partly drawn) [Example 48, Tetrahydro-2H-pyran-2-ylmethyl (4S)-3,3-dimethyl-4-[({[(1S)-1-(oxo{[(1R)-1-phenylethyl]amino}acetyl)pentyl]amino}carbonyl)oxy]-1-pyrrolidinecarboxylate], 100 to 1000 nM. The result for `CCCC[C@H](NC(=O)O[C@@H]1CN(C(=O)N2CCCC2)CC1(C)C)C(=O)C(=O)N[C@H](C)c1ccccc1` [Example 74, (3S)-4,4-Dimethyl-1-(1-pyrrolidinylcarbonyl)pyrrolidinyl (1S)-1-(oxo{[(1R)-1-phenylethyl]amino}acetyl)pentylcarbamate] reads 10 to 100 nM; that for `CCCC[C@H](NC(=O)O[C@@H]1CN(C(=O)Nc2ccc(C#N)cc2)CC1(C)C)C(=O)C(=O)N[C@H](C)c1ccccc1` [Example 69, (3S)-1-[(4-Cyanoanilino)carbonyl]-4,4-dimethylpyrrolidinyl (1S)-1-(oxo{[(1R)-1-phenylethyl]amino}acetyl)pentylcarbamate], 10 to 100 nM. As to `CCCC[C@H](NC(=O)O[C@@H]1CN(C(=O)Cc2ccc(C(C)(C)C)cc2)CC1(C)C)C(=O)C(=O)N[C@H](C)c1ccccc1` [Example 25, (3S)-1-[(4-tert-Butylphenyl)acetyl]-4,4-dimethylpyrrolidinyl (1S)-1-(oxo{[(1R)-1-phenylethyl]amino}acetyl)pentylcarbamate], the half-inhibitory concentration (IC50) was 10 to 100 nM. For `CCCC[C@H](NC(=O)O[C@@H]1CN(C(=O)OCc2cc(C)on2)CC1(C)C)C(=O)C(=O)N[C@H](C)c1ccccc1` [Example 52, (5-methyl-3-isoxazolyl)methyl (4S)-3,3-dimethyl-4-[({[(1S)-1-(oxo{[(1R)-1-phenylethyl]amino}acetyl)pentyl]amino}carbonyl)oxy]-1-pyrrolidinecarboxylate], the IC50 was 10 to 100 nM. As to `CCCC[C@H](NC(=O)O[C@@H]1CN(C(C)=O)CC1(C)C)C(=O)C(=O)N[C@H](C)c1ccccc1` [Example 10, (3S)-1-Acetyl-4,4-dimethylpyrrolidinyl (1S)-1-(oxo{[(1R)-1-phenylethyl]amino}acetyl)pentylcarbamate], the half-inhibitory concentration (IC50) lay in the range of 10 to 100 nM. Regarding `CCCC[C@H](NC(=O)O[C@@H]1CN(S(=O)(=O)c2ccccc2)CC1(C)C)C(=O)C(=O)N[C@H](C)c1ccccc1` [Example 77, (3S)-4,4-Dimethyl-1-(phenylsulfonyl)pyrrolidinyl (1S)-1-(oxo{[(1R)-1-phenylethyl]amino}acetyl)pentylcarbamate], the IC50 was in the range of 1 to 10 nM.
